# Results from patent US20120010237A1, “COMPOUNDS HAVING ANTIPARASITIC OR ANTI-INFECTIOUS ACTIVITY” (The Government of the United States of America dba The …, priority 2008, published 2012).
# Several values for one entry are separate records, joined by “and”; a condition that tells them apart may be missing. Identical values can stand only once. Like-named read-outs stand apart in the source and are kept apart here.
# Assays:
# [1] = system: P. falciparum (D6, Dd2, Tm90.C2B); test: In vitro activity and pharmaco-resistance pattern against a panel of P. falciparum parasites; type: cell-based, Plasmodium falciparum; settings: for reduction of potency relative to ELQ-121: in vitro, relative to the 5,7-difluoro parent ELQ-121; for antiplasmodial activity in vitro (in words): structure-activity comparison with endochin; for cross-resistance / sensitivity pattern across strains: atovaquone-resistant Tm90.C2B compared with D6 and Dd2, in words
# Method: (§1) Plasmodium falciparum strains D6 and Dd2 were obtained from the MR4 (ATCC, Manassas, Va., USA). D6 is sensitive to chloroquine but mildly resistant to mefloquine while Dd2 is resistant to multiple quinoline and antifolate antimalarial agents. Tm90.C2B is resistant to atovaquone, chloroquine, mefloquine, and quinine.
# (§2) Three different laboratory strains of P. falciparum were cultured in human erythrocytes by standard methods under a low oxygen atmosphere (5% O2, 5% CO2, 90% N2) in an environmental chamber as described in Trager, W., and J. B. Jensen. 1976. Human malaria parasites in continuous culture. Science 193:673-5. The culture medium was RPMI-1640, supplemented with 25 mM HEPES buffer, 25 mg/L gentamicin sulfate, 45 mg/L hypoxanthine, 10 mM glucose, 2 mM glutamine, and 0.5% Albumax II (complete medium). The parasites were maintained in fresh human erythrocytes suspended at a 2% hematocrit in complete medium at 37° C. Stock cultures were sub-passaged every 3 to 4 days by transfer of infected red cells to a flask containing complete medium and uninfected erythrocytes.
# (§3) In vitro antimalarial activity of the compounds was assessed by the SYBR Green I fluorescence-based method (the “MSF assay”) described previously by Smilkstein, M., N. Sriwilaijaroen, J. X. Kelly, P. Wilairat, and M. Riscoe. 2004. Simple and inexpensive fluorescence-based technique for high-throughput antimalarial drug screening. Antimicrob Agents Chemother 48:1803-6 with minor modifications (Winter, R. W., J. X. Kelly, M. J. Smilkstein, R. Dodean, G. C. Bagby, R. K. Rathbun, J. I. Levin, D. Hinrichs, and M. K. Riscoe. 2006. Evaluation and lead optimization of anti-malarial acridones. Exp Parasitol 114:47-56). Experiments were set up in triplicate in 96 well plates (Costar, Corning) with two-fold dilutions of each drug across the plate in a total volume of 100 microliters and at a final red blood cell concentration of 2% (v/v). Stock solutions of each drug were prepared by dissolving in ethanol or dimethylsulfoxide (as appropriate) at 10 mM. […] Automated pipeting and dilution was carried out with the aid of a programmable Precision 2000 robotic station (BioTek, Winooski, Vt.). An initial parasitemia of 0.2% was attained by addition of normal uninfected red cells to a stock culture of asynchronous parasite infected red cells (PRBC). The plates were incubated for 72 hrs at 37° C. in an atmosphere of 5% CO2, 5% O2, and 90% N2. After this period the SYBR Green I dye-detergent mixture (100 μl) was added and the plates were incubated at room temperature for an hour in the dark and then placed in a 96-well fluorescence plate reader (Spectramax Gemini-EM, […]) for analysis with excitation and emission wavelength bands centered at 497 and 520 nm, respectively.
# (§4) The compounds were screened for antiplasmodial activity in vitro against chloroquine (CQ) sensitive (D6), multidrug resistant (Dd2), and chloroquine/quinine/atovaquone (ATV)-resistant (Tm90.C2B) strains of P. falciparum.
# P. yoelii = type: in vivo
# Method: The activity of the ester, ELQ-125, against the blood stages was assessed using a modified Thompson procedure (Arba Ager, 1984). Rodent malaria models, vol. 68/1. Springer-Verlag, Berlin. Mice (female, CFI) were infected intravenously with 1-5 million P. yoelii parasitized erythrocytes from a donor animal. Drug administration was initiated once the parasitemia had risen to between 3 to 5% as determined microscopically by examination of Giemsa-stained blood smears. The test compound, ELQ-125, was taken into NeoBee® M-5 (Stephan Company, Northfield, Ill., USA) and used without dilution. The drug was administered by gavage once daily for 3 days. On the 4th day blood films were prepared and the extent of parasitemia was determined microscopically. ED50 and ED90 values (mg/kg/day) were derived from the dose required to reduce the parasite burden by 50% and 90%, respectively, relative to drug-free controls. The procedures involved, together with all matters relating to the care and housing of the animals used in this study, were approved by the Portland VA Medical Center Institutional Animal Care and Use Committee (approval #0807).
# Prodrugs containing a water-soluble pro-moiety that could be metabolically released after drug administration were designed and synthesized. […] In each case, ELQ-125, a clear and colorless syrup, was administered orally with NeoBee M-5 (vol.=100 μl).
# [2] = system: Plasmodium falciparum strain D6; test: SYBR Green I fluorescence-based MSF assay, in vitro antimalarial activity, strain D6; type: cell-based; settings: chloroquine sensitive strain D6, 72 hrs incubation
# Method: as §1, §2, §3, §4
# [3] = system: Plasmodium falciparum strain Dd2; test: SYBR Green I fluorescence-based MSF assay, in vitro antimalarial activity, strain Dd2; type: cell-based; settings: multidrug resistant strain Dd2, 72 hrs incubation
# Method: as §1
# Three different laboratory strains of P. falciparum were cultured in human erythrocytes by standard methods under a low oxygen atmosphere (5% O2, 5% CO2, 90% N2) in an environmental chamber as described in Trager, W., and J. B. Jensen. 1976. Human malaria parasites in continuous culture. Science 193:673-5. […]
# In vitro antimalarial activity of the compounds was assessed by the SYBR Green I fluorescence-based method (the “MSF assay”) described previously by Smilkstein, M., N. Sriwilaijaroen, J. X. Kelly, P. Wilairat, and M. Riscoe. […] Simple and inexpensive fluorescence-based technique for high-throughput antimalarial drug screening. […] After this period the SYBR Green I dye-detergent mixture (100 μl) was added and the plates were incubated at room temperature for an hour in the dark and then placed in a 96-well fluorescence plate reader (Spectramax Gemini-EM, […]) for analysis with excitation and emission wavelength bands centered at 497 and 520 nm, respectively. […]
# [4] = system: Plasmodium falciparum strain Tm90.C2B; type: cell-based
# Method: as §1, §2
# In vitro antimalarial activity of the compounds was assessed by the SYBR Green I fluorescence-based method (the “MSF assay”) described previously by Smilkstein, M., N. Sriwilaijaroen, J. X. Kelly, P. Wilairat, and M. Riscoe. 2004. Simple and inexpensive fluorescence-based technique for high-throughput antimalarial drug screening. Antimicrob Agents Chemother 48:1803-6 with minor modifications (Winter, R. W., J. X. Kelly, M. J. Smilkstein, R. Dodean, G. C. Bagby, R. K. Rathbun, J. I. Levin, D. Hinrichs, and M. K. Riscoe. 2006. Evaluation and lead optimization of anti-malarial acridones. Exp Parasitol 114:47-56). […] After this period the SYBR Green I dye-detergent mixture (100 μl) was added and the plates were incubated at room temperature for an hour in the dark and then placed in a 96-well fluorescence plate reader (Spectramax Gemini-EM, […]) for analysis with excitation and emission wavelength bands centered at 497 and 520 nm, respectively. […]
# [5] = system: Toxoplasma gondii strain 2F; test: Anti-T. gondii assay with beta-galactosidase expressing 2F strain in HFF cells; type: cell-based; settings: compared with the correlation observed for Plasmodium falciparum
# Method: Determination of anti-T. gondii IC50 and TD50 values—use of the 2F strain. This method, which employs tachyzoites of Toxoplasma gondii strain 2F that constitutively expresses cytoplasmic Beta-galactosidase, has been described recently by Jones-Brando et al. (Jones-Brando, L., D'angelo, J., Posner, G H, and Yolken, R., 2006, In vitro inhibition of Toxoplasma gondii by four new derivatives of artemisinin, Antimicrobial Agents and Chemotherapy 50: 4206-8). […] Briefly, each drug was dissolved in ethanol or DMSO, as appropriate, at a concentration of 10 mM and diluted with complete Dulbecco's modified Eagle's medium (DMEM) to 1,000 μM. […] After this period, Triton X-100 is added to inactivate the parasite and the color reactions in the wells were read in a microplate reader. For anti-T. gondii IC50 determinations, the plates are read at 570-650 nm. The amount of absorbance (570-650 nm) in wells containing drug, parasites, and CPRG reagent is compared to that in control wells containing T. gondii, HFF cells and CPRG. The amount of absorbance in these wells is directly proportional to the amount of beta-galactosidase activity and thus correlative to the number of viable tachyzoites in each well. Thus, a decrease in the amount of absorbance indicates an inhibition of parasite growth. […]
# P. cathemerium = settings: P. cathemerium/canary; cited from earlier work
# P. gallinaceum = P. gallinaceum in the chick; cited from earlier work
# P. lophurae = P. lophurae in the turkey; cited from earlier work
# Haemoproteus = settings: male gametocytes undergoing exflagellation, finches infected with Haemoproteus; cited from earlier work
# malaria infections = settings: mice to non-human primates (Rhesus monkeys); cited from earlier work
# [6] = chloroquine/quinine/atovaquone-resistant Tm90.C2B clinical isolate, 72 hrs incubation
structure (smiles),measurement,setting,value
"CCCCCCCc1c(C)[nH]c2c(F)cc(F)cc2c1=O [6,8-difluoro positional isomer]",reduction of potency relative to ELQ-121,[1],"≈ 2,000 fold"
CCCCCCCc1c(C)nc2cc(F)cc(F)c2c1OC(=O)OCCOCCOCCOCCOC [ELQ-125],parasitemia suppressed relative to controls,"P. yoelii; 25 mg/kg/day oral, 3 days, assessed on the day following the last dose",> 99%
same,parasite status during follow-up,"P. yoelii; 25 mg/kg/day oral, 3 days, until euthanized 10 days later",remained parasite-free
same,clearance of parasites from the bloodstream,"P. yoelii; 50 mg/kg/day oral in NeoBee M-5, once daily for 3 days, mice",completely cleared parasites from the bloodstream
same,clearance of parasites from the bloodstream,"P. yoelii; 100 mg/kg/day oral in NeoBee M-5, once daily for 3 days, mice",completely cleared parasites from the bloodstream
same,ED90,"P. yoelii; oral in 100 μl NeoBee M5, once daily for 3 days, mice",22 mg/kg/day
same,in vivo efficacy of the prodrug (in words),P. yoelii; prodrug ester compared with ELQ-121,greatly enhanced in vivo efficacy
CCCCCCCc1c(C)[nH]c2cc(Cl)ccc2c1=O [ELQ-109],IC50,[2],5.8 nM
same,antiplasmodial activity in vitro (in words),[1],only a modest reduction in in vitro potency
CCCCCCCc1c(C)nc2cc(F)cc(F)c2c1Cl [ELQ-119],reduction of potency relative to ELQ-121,[1],"> 1,000 fold"
COc1ccc2c(=O)c(CCCCCCCCCCC(F)(F)F)c(C)[nH]c2c1 [ELQ-103],IC50 vs. D6,[2],low nanomolar range
same,IC50 vs. Dd2,[3],low nanomolar range
same,IC50 vs. Tm90.C2B,[4]; [6],low nanomolar range
CCCCCCCc1c(C)n(C)c2cc(F)cc(F)c2c1=O [ELQ-134],reduction of potency relative to ELQ-121,[1],about 300 fold
same,growth inhibitory activity against Toxoplasma gondii (in words),[5],enhanced growth inhibitory activity
CCCCCCCc1c(C)[nH]c2cc(O)ccc2c1=O [ELQ-117],antiplasmodial activity in vitro (in words),[1],greatly diminishes antiplasmodial activity
CCCCCCCc1c(C)[nH]c2ccccc2c1=O [ELQ-127],cross-resistance / sensitivity pattern across strains,[1],equally active against all three parasite strains
same,in vitro activity weakened relative to endochin,[1]; relative to endochin,roughly 5 fold
"CCCCCCCc1c(C)[nH]c2cc(F)cc(F)c2c1=O [ELQ-121, 2-Methyl-3-(n-heptyl)-5.7-difluorquinolone]",IC50,[2],~0.05 nM
same,IC50,[3],~0.05 nM
same,IC50 against Tm90.C2B relative to D6 and Dd2,[4]; times higher than IC50 against D6 and Dd2,about 300 times
CCCCCCCc1c(C)[nH]c2cc(F)ccc2c1=O [ELQ-120],antiplasmodial activity in vitro (in words),[1],only a modest reduction in in vitro potency
CCCCCCCc1c(C)[nH]c2cc(Cl)cc(Cl)c2c1=O [ELQ-124],antiplasmodial activity in vitro (in words),[1],weak in vitro activity
CCCCCCCc1c(O)[nH]c2cc(OC)ccc2c1=O [ELQ-106],IC50,[2],> 2500 nM
CCCCCCCc1c(C)[nH]c2ccc(Cl)cc2c1=O [ELQ-130],IC50,[2],22.2 nM
same,cross-resistance / sensitivity pattern across strains,[1],equal sensitivity is observed against the atovaquone-resistant Tm90.C2B clinical isolate
"CCCCCCCc1c(C)[nH]c2cc(OC)ccc2c1=O [ELQ-100, endochin]",IC50,[2],3 to 4 nM and 3.8 nM
same,IC50,[4]; [6],11.4 nM
same,cross-resistance / sensitivity pattern across strains,[1],a modest level of ATV cross-resistance
same,efficacy in bird model,P. cathemerium,efficacy in treatment and prevention of malaria
same,efficacy in treatment and prophylaxis,P. gallinaceum,demonstrated efficacy in treatment and prophylaxis
same,efficacy in treatment and prophylaxis,P. lophurae,demonstrated efficacy in treatment and prophylaxis
same,gametocidal action,Haemoproteus,exerted gametocidal action
same,cure of malaria infections in mammalian species,malaria infections,failed to cure malaria infections
